# Key:
# Type in all cases: cell-based
# β-defensin (defensin-β4) = assay: Gene expression in cytokine-stimulated keratinocytes, quantitative real time PCR; conditions: for β-defensin gene expression (in % of stimulated cells): keratinocytes, cytokine mix 24 hrs
# Protocol: (§1) Keratinocytes were cultured in standard medium (SFM, invitrogen #1 7005075) until they reached confluence. Culture medium was then changed to assay medium (SFM without epidermal growth factor and pituary extract) and pre-incubated with the test compound for 2 hrs. In order to stimulate the cells, a cytokine mix (see Boniface et al. J. Immunol. 178, 4615-4622, 2007) was added and the cells were cultured for 24 hrs. At the end of the experiment, cells were washed; total RNA was extracted using Trizol reagents (Sigma T9424). The expression levels of specific genes (cytokeratin 10, β-defensin (defensin-β4) and psoriasin (or S100 calcium-binding protein A7) was performed by quantitative real time PCR, using the procedure described in other examples.
# [1] = tested on: psoriasin (S100 calcium-binding protein A7); assay: as above; conditions: for Psoriasin gene expression (in % of stimulated cells): keratinocytes, cytokine mix 24 hrs
# Protocol: as §1
# Aggrecan = assay: Gene expression in human chondrocyte cells (SW1353), quantitative real-time PCR
# Protocol: (§2) The cells were treated with IL-1β, which is one of the natural mediators that induce cartilage breakdown and is detected in substantial amounts in osteoarthritic cartilage tissues and cells derived thereof. Treatment of cells with IL-1β triggers the expression of genes that are involved in catabolic events, such as MMPs. Also, treatment of the cells with IL-1β reduces the collagen expression levels (compared to untreated cells)
# (§3) Chondrocytes (SW1353; purchased from the […] [ATCC]) were grown in cell culture medium according to the instructions from ATCC. For experimental treatments, cells were seeded into 6-well plates and cultured for two days until they reached confluence. Total cellular RNA was extracted from cultured cells and reverse-transcribed as described by Richard et al. Mol. Nutr. Food Res. 49, 431-442, 2005. Expression levels of distinct genes were determined by quantitative real-time PCR as described in Richard et al. Mol. Nutr. Food Res. 49, 431-442, 2005.
# Human collagen II = assay: as above
# Protocol: as §2, §3
# human collagen 1 = assay: as above
# Protocol: as §2, §3
# Human MMP-1 = assay: as above
# Protocol: as §2, §3
# Human MMP-13 = assay: as above
# Protocol: as §2, §3
# Human MMP-3 = assay: as above
# Protocol: as §2, §3
# [2] = cytokine-stimulated keratinocytes
compound,measurement,setting,value
"COc1c(C(C)C)cc2c(c1O)[C@@]1(C(=O)O)CCCC(C)(C)[C@@H]1CC2 [Carnosic acid-12-methyl ether (I), (4aR,10aS)-carnosic acid 12-methyl ether]",β-defensin gene expression (in % of stimulated cells),β-defensin (defensin-β4); 0.1 μmol/L,49 % of stimulated cells
same,β-defensin gene expression (in % of stimulated cells),β-defensin (defensin-β4); 1.0 μmol/L,47 % of stimulated cells
same,β-defensin gene expression (in % of stimulated cells),β-defensin (defensin-β4); 5.0 μmol/L,28 % of stimulated cells
same,Effect on β-defensin expression (in words),β-defensin (defensin-β4); [2],dose-dependently reduced the expression
same,Psoriasin gene expression (in % of stimulated cells),[1]; 0.1 μmol/L,46 % of stimulated cells
same,Psoriasin gene expression (in % of stimulated cells),[1]; 1.0 μmol/L,58 % of stimulated cells
same,Psoriasin gene expression (in % of stimulated cells),[1]; 5.0 μmol/L,62 % of stimulated cells
same,Effect on psoriasin expression (in words),[1]; [2],dose-dependently reduced the expression
same,Effect on expression of aggrecan (in words),Aggrecan,stimulated the expression
same,Effect on expression of human collagen 11 (in words),Human collagen II,stimulated the expression
same,Effect on expression of human collagen 1 (in words),human collagen 1,stimulated the expression
same,Effect on expression of MMP-1 (in words),Human MMP-1,drastically reduced the expression
same,Effect on expression of MMP-13 (in words),Human MMP-13,drastically reduced the expression
same,Effect on expression of MMP-3 (in words),Human MMP-3,drastically reduced the expression
